Measured values taken from PMC5681660, “Reduced hepatitis B and D viral entry using clinically applied drugs as novel inhibitors of the bile acid transporter NTCP” (Scientific Reports, 2017).
Structures can show the parent of a compound that is named as a salt. Where two headings read alike, the source gives them in different places.

Legend:
human NTCP [1] = biological target: T1, human NTCP (Homo sapiens, UniProt Q14973); experiment: Screening taurocholate uptake assay (96-well, [14C]taurocholate, 10 µM drug)
T1 sequence (Q14973 1-349): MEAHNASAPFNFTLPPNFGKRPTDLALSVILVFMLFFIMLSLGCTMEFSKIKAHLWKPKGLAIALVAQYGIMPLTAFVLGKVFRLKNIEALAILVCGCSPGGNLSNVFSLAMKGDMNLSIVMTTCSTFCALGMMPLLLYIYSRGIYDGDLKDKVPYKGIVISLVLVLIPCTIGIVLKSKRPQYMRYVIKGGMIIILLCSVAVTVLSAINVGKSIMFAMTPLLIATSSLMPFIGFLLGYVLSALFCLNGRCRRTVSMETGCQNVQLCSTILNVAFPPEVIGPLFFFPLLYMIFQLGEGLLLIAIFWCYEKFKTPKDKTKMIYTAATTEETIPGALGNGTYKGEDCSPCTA

human NTCP [2] = biological target: T1, human NTCP; experiment: Screening fluorescent competitive Myrcludex B-FITC binding assay (96-well, 10 µM drug)
[3] = Prestwick library screen, taurocholate uptake, 10 µM drug
[4] = ranking score beside the functional and binding assay B-scores of the screen
[5] = Prestwick library screen, Myrcludex B-FITC binding, 10 µM drug
[6] = Prestwick library screen, 10 µM drug, B-score of taurocholate uptake
[7] = combined ranking from functional and binding assay B-scores
[8] = Prestwick library screen, 10 µM drug, B-score of Myrcludex B-FITC binding
[9] = combined ranking from functional and binding screening assays
[10] = screen, 10 µM drug, taurocholate uptake
[11] = screen, 10 µM drug, Myrcludex B-FITC binding

`Nc1nc(F)nc2c1ncn2[C@@H]1O[C@H](CO)[C@@H](O)[C@@H]1O` [Fludarabine] was tested, and the B-score functional assay (human NTCP [1]; [3]) was 1.199, the Ranking score (human NTCP [1]; [4]) was 822.35 and the B-score binding assay (human NTCP [2]; [5]) was -0.02.

`CC12CC3CC(C)(C1)CC(N)(C3)C2` [Memantine Hydrochloride] showed a B-score functional assay (human NTCP [1]; [3]) of 1.46, a Ranking score (human NTCP [1]; [4]) of 837.42 and a B-score binding assay (human NTCP [2]; [5]) of -0.02.

`Cc1ncc([N+](=O)[O-])n1CCO` [Metronidazole] gave a B-score functional assay (human NTCP [1]; [6]) of 1.996, a Ranking score (human NTCP [1]; [7]) of 878.042 and a B-score binding assay (human NTCP [2]; [8]) of 0.

In the case of `CS(=O)(=O)Nc1ccc([N+](=O)[O-])cc1Oc1ccccc1` [Nimesulide], the Ranking score (human NTCP [1]; [9]) is reported as 428.869, the B-score functional assay (human NTCP [1]; [10]) is reported as -1.398 and the B-score binding assay (human NTCP [2]; [11]) is reported as 0.652.

In the case of `CN(C)CCCN1c2ccccc2CCc2ccc(Cl)cc21` [Clomipramine hydrochloride], the B-score functional assay (human NTCP [1]; [3]) is reported as 4.061, the Ranking score (human NTCP [1]; [4]) is reported as 759.266 and the B-score binding assay (human NTCP [2]; [5]) is reported as -0.277.

`NCc1ccc(S(N)(=O)=O)cc1` [Mafenide hydrochloride] showed a B-score functional assay (human NTCP [1]; [3]) of 0.341, a Ranking score (human NTCP [1]; [4]) of 703.397 and a B-score binding assay (human NTCP [2]; [5]) of -0.055.

Work on `CN(C)CCOC(=O)COc1ccc(Cl)cc1.Cl` [Meclofenoxate hydrochloride] yielded a Ranking score (human NTCP [1]; [9]) of 355.4, a B-score functional assay (human NTCP [1]; [10]) of -0.036 and a B-score binding assay (human NTCP [2]; [11]) of -1.168.

Work on `CC(N)C(O)c1ccccc1` (stereo not drawn) [Phenylpropanolamine hydrochloride] yielded a B-score functional assay (human NTCP [1]) of 0.305, a Ranking score (human NTCP [1]) of 449.533 and a B-score binding assay (human NTCP [2]) of -0.994.

For `CCN(CC)C(=O)/C(C#N)=C/c1cc(O)c(O)c([N+](=O)[O-])c1` [Entacapone], the Ranking score (human NTCP [1]; [9]) was 366.148, the B-score functional assay (human NTCP [1]; [10]) was -0.441 and the B-score binding assay (human NTCP [2]; [11]) was -0.647.

For `CCN[C@H]1C[C@H](C)S(=O)(=O)c2sc(S(N)(=O)=O)cc21` [Dorzolamide hydrochloride], the Ranking score (human NTCP [1]; [9]) was 369.324, the B-score functional assay (human NTCP [1]; [10]) was -0.44 and the B-score binding assay (human NTCP [2]; [11]) was -0.624.

With `CNCCC(Oc1ccccc1OC)c1ccccc1` (stereo not drawn) [Nisoxetine hydrochloride] the B-score functional assay (human NTCP [1]) was -0.598, the Ranking score (human NTCP [1]) was 324.321 and the B-score binding assay (human NTCP [2]) was -0.726.

For `O=C(N/N=C/c1ccc([N+](=O)[O-])o1)c1ccc(O)cc1` [Nifuroxazide], the B-score functional assay (human NTCP [1]; [6]) was 2.774, the Ranking score (human NTCP [1]; [7]) was 1088.47 and the B-score binding assay (human NTCP [2]; [8]) was 0.661.

`CN1CCC(=C2c3ccccc3CCc3cccnc32)CC1` [Azatadine maleate] was tested, and the B-score functional assay (human NTCP [1]; [6]) was 0.678, the Ranking score (human NTCP [1]; [7]) was 1070.86 and the B-score binding assay (human NTCP [2]; [8]) was 1.844.

Work on `COc1ccc2[nH]c([S+]([O-])Cc3ncc(C)c(OC)c3C)nc2c1` (stereo not drawn) [Omeprazole] yielded a Ranking score (human NTCP [1]; [9]) of 423.789, a B-score functional assay (human NTCP [1]; [10]) of -0.074 and a B-score binding assay (human NTCP [2]; [11]) of -0.678.

With `C[C@H]1C[C@@H]2[C@H]([C@@H](O)C[C@@]3(C)[C@H]2CC[C@]3(O)C(=O)CO)[C@@]2(C)C=CC(=O)C=C12` [Methylprednisolone, 6-alpha] the B-score functional assay (human NTCP [1]; [6]) was 0.477, the Ranking score (human NTCP [1]; [7]) was 941.018 and the B-score binding assay (human NTCP [2]; [8]) was 0.779.

`CN1CCCN(C(c2ccccc2)c2ccc(Cl)cc2)CC1.Cl.Cl` (stereo not drawn) [Homochlorcyclizine dihydrochloride] showed a B-score functional assay (human NTCP [1]; [6]) of 0.737, a Ranking score (human NTCP [1]; [7]) of 1053.65 and a B-score binding assay (human NTCP [2]; [8]) of 1.404.

In the case of `Nc1ccn([C@@H]2O[C@H](CO)[C@@H](O)[C@@H]2O)c(=O)n1` [Cytarabine], the B-score functional assay (human NTCP [1]; [6]) is reported as 0.582, the Ranking score (human NTCP [1]; [7]) is reported as 944.957 and the B-score binding assay (human NTCP [2]; [8]) is reported as 0.655.

Work on `CC(N)C12CC3CC(CC(C3)C1)C2` (stereo not drawn) [Rimantadine Hydrochloride] yielded a B-score functional assay (human NTCP [1]; [3]) of 0.074, a Ranking score (human NTCP [1]; [4]) of 753.923 and a B-score binding assay (human NTCP [2]; [5]) of 0.171.

In the case of `CCN1CCCC(OC(=O)C(c2ccccc2)c2ccccc2)C1` (stereo not drawn) [Piperidolate hydrochloride], the Ranking score (human NTCP [1]; [9]) is reported as 357.281, the B-score functional assay (human NTCP [1]; [10]) is reported as 1.475 and the B-score binding assay (human NTCP [2]; [11]) is reported as -1.968.

In the case of `Nc1nc(N)nc(-c2cc(Cl)ccc2Cl)n1` [Irsogladine maleate], the B-score functional assay (human NTCP [1]; [3]) is reported as 5.029, the Ranking score (human NTCP [1]; [4]) is reported as 750.144 and the B-score binding assay (human NTCP [2]; [5]) is reported as -0.312.

In the case of `C[C@]12CC[C@@H](O)C[C@@H]1CC[C@@H]1[C@@H]2CC[C@]2(C)C(=O)CC[C@@H]12` [Androsterone], the B-score functional assay (human NTCP [1]) is reported as 0.451, the Ranking score (human NTCP [1]) is reported as 969.912 and the B-score binding assay (human NTCP [2]) is reported as 1.069.

With `CC(CCc1ccc(O)cc1)NCCc1ccc(O)c(O)c1` (stereo not drawn) [Dobutamine hydrochloride] the B-score functional assay (human NTCP [1]; [3]) was -0.038, the Ranking score (human NTCP [1]; [4]) was 789.916 and the B-score binding assay (human NTCP [2]; [5]) was 1.051.

For `CCN1CCC[C@H]1CNC(=O)c1c(O)c(Cl)cc(Cl)c1OC` [Raclopride], the B-score functional assay (human NTCP [1]; [6]) was 0.507, the Ranking score (human NTCP [1]; [7]) was 891.19 and the B-score binding assay (human NTCP [2]; [8]) was 0.374.

For `CCOc1nc2cccc(C(=O)O)c2n1Cc1ccc(-c2ccccc2-c2nnn[nH]2)cc1` [Candesartan], the B-score functional assay (human NTCP [1]; [3]) was 0.287, the Ranking score (human NTCP [1]; [4]) was 798.474 and the B-score binding assay (human NTCP [2]; [5]) was 0.128.

Molecule `C#C[C@]1(O)CC[C@H]2[C@@H]3CCC4=CC(=O)CC[C@]4(C)[C@H]3CC[C@@]21C` [Ethisterone] has a B-score functional assay (human NTCP [1]; [3]) of -0.564, a Ranking score (human NTCP [1]; [4]) of 653.06 and a B-score binding assay (human NTCP [2]; [5]) of 2.018.

With `CCCC[N+]1(C)[C@@H]2C[C@@H](OC(=O)[C@H](CO)c3ccccc3)C[C@H]1[C@@H]1O[C@@H]12.[Br-]` (stereo partly drawn) [Butylscopolammonium (n-) bromide] the Ranking score (human NTCP [1]; [9]) was 409.241, the B-score functional assay (human NTCP [1]; [10]) was -0.739 and the B-score binding assay (human NTCP [2]; [11]) was -0.108.

Molecule `Cc1c(Cl)cccc1Nc1ncccc1C(=O)O.NCCCC[C@H](N)C(=O)O` [Clonixin Lysinate] has a B-score functional assay (human NTCP [1]) of -1.707, a Ranking score (human NTCP [1]) of 317.248 and a B-score binding assay (human NTCP [2]) of 0.

Molecule `O=C(O)c1ccccc1C(=O)Nc1ccc(S(=O)(=O)Nc2nccs2)cc1` [Phthalylsulfathiazole] has a B-score functional assay (human NTCP [1]; [6]) of 1.113, a Ranking score (human NTCP [1]; [7]) of 1099.94 and a B-score binding assay (human NTCP [2]; [8]) of 1.374.

`O=C(CCCN1CCN(c2ccccn2)CC1)c1ccc(F)cc1` [Azaperone] showed a B-score functional assay (human NTCP [1]; [6]) of 0.852, a Ranking score (human NTCP [1]; [7]) of 931.399 and a B-score binding assay (human NTCP [2]; [8]) of 0.326.

Work on `CCN(CCO)CCCC(C)Nc1ccnc2cc(Cl)ccc12` (stereo not drawn) [Hydroxychloroquine sulfate] yielded a B-score functional assay (human NTCP [1]; [3]) of 0.168, a Ranking score (human NTCP [1]; [4]) of 775.907 and a B-score binding assay (human NTCP [2]; [5]) of 0.139.

In the case of `CCN(CC)C(C)C(=O)c1ccccc1` (stereo not drawn) [Amfepramone hydrochloride], the B-score functional assay (human NTCP [1]; [6]) is reported as 0.339, the Ranking score (human NTCP [1]; [7]) is reported as 1034.63 and the B-score binding assay (human NTCP [2]; [8]) is reported as 2.906.

`N[C@@H](Cc1cc(I)c(Oc2cc(I)c(O)c(I)c2)c(I)c1)C(=O)O` [Thyroxine (L)] gave a Ranking score (human NTCP [1]; [9]) of 435.061, a B-score functional assay (human NTCP [1]; [10]) of 0.005 and a B-score binding assay (human NTCP [2]; [11]) of -0.765.

In the case of `Cc1nnc(SCC2=C(C(=O)O)N3C(=O)[C@@H](NC(=O)Cn4cnnn4)[C@H]3SC2)s1` [Cefazolin sodium salt], the B-score functional assay (human NTCP [1]; [3]) is reported as 0.093, the Ranking score (human NTCP [1]; [4]) is reported as 718.895 and the B-score binding assay (human NTCP [2]; [5]) is reported as 0.04.

Molecule `CC(=O)OCC1=C(C(=O)O)N2C(=O)[C@@H](NC(=O)Cc3cccs3)[C@H]2SC1` [Cephalothin sodium salt] has a Ranking score (human NTCP [1]; [9]) of 427.172, a B-score functional assay (human NTCP [1]; [10]) of -1.381 and a B-score binding assay (human NTCP [2]; [11]) of 0.561.

With `CCN(CC)CCOc1ccc(C(=C(Cl)c2ccccc2)c2ccccc2)cc1.O=C(O)CC(O)(CC(=O)O)C(=O)O` [Clomiphene citrate (Z,E)] the B-score functional assay (human NTCP [1]; [3]) was 0.862, the Ranking score (human NTCP [1]; [4]) was 678.964 and the B-score binding assay (human NTCP [2]; [5]) was -0.291.
